Test: Solubility in water and in organic solvents
Type: physicochemical

solubility in organic solvents (organic solvents): high solubility | solubility in water (water): high solubility
SMILES: CNC(=O)c1cc(Oc2ccc(NC(=O)Nc3ccc(Cl)c(C(F)(F)F)c3)c(F)c2)ccn1 [polymorph II, 4-[4-({[4-chloro-3-(trifluoromethyl)phenyl]carbamoyl}amino)-3-fluorophenoxy]-N-methylpyridine-2-carboxamide]

From US20100113533A1, “Polymorph II of 4-[4-(Amino)-3- Fluorophenoxy]-N-Methylpyridine-2-Carboxamide” (BAYER SCHERING PHARMA AKTIENGESELLSCHAFT, priority 2006, published 2010)
